In US20210052874A1, “ULTRASOUND DEVICE AND THERAPEUTIC METHODS” (priority 2011, published 2021):

Assay: In vitro transdermal delivery of carboxyfluorescein through mouse skin in a Franz diffusion cell, with or without low frequency ultrasound (LFUS)
Assay type: in vitro ADME
Conditions: for Delivery Efficiency (% of CF delivered) / Enhancement Ratio v. free CF, no LFUS: mouse skin
Procedure: An in vitro study was performed to evaluate the ability of the present invention to enable transdermal delivery of substantially intact encapsulated drugs. The study involved applying low intensity, low pressure amplitude ultrasound waves to mouse skin in order to mediate transdermal delivery of liposome encapsulated carboxyfluorescein (CF), a hydrophilic dye. […] In this setup, an ultrasound applicator 10 having 4 transducers 12 arranged in a 2×2 array is supported by a custom fixture 80 and in direct communication with a Franz diffusion cell, including a donor compartment 82 filled with a liquid medium interspersed with liposome encapsulated CF and a sample mouse skin. Low frequency ultrasound waves (LFUS) having a low pressure amplitude of about 55 kPa, a low acoustic intensity of about 100 mW/cm^2 and a low frequency of about 17.9 kHz was generated by ultrasound applicator 10 and directed towards a mouse skin sample 84 positioned adjacent to donor compartment 82 for about 4 hours. The amount of liposome encapsulated CF that permeated mouse skin 84 and collected within a receptor compartment 86 surrounded by a water jacket 88 was examined and measured after about 4 hours of ultrasound application when the ultrasound source was turned off and again 8 hours after the start of the experiment. The liposomes were made from 1,2-dioleoyl-sn-glycerol-3-phosphocholine (DOPC), and the liposome encapsulated CF was prepared using the dehydration-rehydration technique described in Kirby, C. and G. Gregoriadis, “Dehydration rehydration vesicles: a simple method for high yield drug entrapment in liposome,” Nature Biotechnology, 1984, 2(11): p. 9′79-984, herein incorporated by reference. In this experiment, encapsulation efficiency of the CF was improved (about 10% to about 30% measured by titration) by minimizing the amount of rehydration buffer used, adjusting pH before rehydration to fully dissolve CF by minimizing the amount of rehydration buffer used, and by adjusting the pH to about 10 and subsequently adjusting the pH to about 7.4 before rehydration. The original encapsulation efficiency of CF was about 0.67% in 100 nm liposomes, using about 5.2 mg CF in the rehydration buffer (about 2.56 mM). […] Tests D1-D2 show the results for liposome encapsulated CF after exposure to 20 minutes of low frequency ultrasound stimulation. Tests E1-3 show the results for liposome encapsulated CF upon exposure to 4 hours of low frequency ultrasound stimulation.

carboxyfluorescein [Free CF]
Delivery Efficiency (% of CF delivered) (4 hr simultaneous LFUS): 0.03%
Enhancement Ratio v. free CF, no LFUS (4 hr simultaneous LFUS): 0.00
Amount able to permeate the mouse skin (after 8 hours, not assisted by ultrasound): less than 0.005 M/M
Delivery Efficiency (% of CF delivered) (no LFUS): 0.03%
Enhancement Ratio v. free CF, no LFUS (no LFUS): 0.00
